# Like-named read-outs stand apart in the source and are kept apart here.
# Assays:
# BT474 xenograft tumors = assay type: in vivo, athymic Nu/J nude mice; conditions: for Xenograft tumor growth under topotecan treatment: topotecan i.p. 5 mg/g every fourth day
# Description: (§1) FIG. 5. CUL4B inactivation sensitized BT474 xenograft tumors to topotecan. Stable TGL-BT474 cells (BT474 cells stably expressing GFP-luciferase reporter) were established by retroviral transduction and FACS sorting. The resulting TGL-BT474 cells were infected with recombinant lentiviruses expressing non-targeting shCtrl, shCUL4A or shCUL4B, followed by selection of infected cells with 4 μg/ml puromycine for one week. A) Knockdown of endogenous CUL4A and 4B were verified by immunoblotting. B, C) 1×10^7 of control, CUL4A^k/d, or CUL4B^k/d TGL-BT474 cells were injected subcutaneously in the right flank of each athymic Nu/J nude mice, treated (i.p.) with toptoecan at a dose of 5 mg/g on every 4th day, and tumor burden was measure by bioluminescent imaging. Statistical significance in tumor burden between control and CUL4A^k/d or CUL4B^k/d xenograph are assessed by a two-tailed unpaired student t-test (***: p<0.001). D) Growth rate of control, CUL4A^k/d and CUL4B^k/d BT474 cells in vitro. The same number of control, CUL4A^k/d and CUL4B^k/d BT474 cells were seeded to 96-well plates and cell proliferation was measured using the XTT Cell Proliferation Assay Kit. The data represent the mean value of fold change of cells. Bars indicate the S.E. of six independent experiments. Statistical significance in cellular rate between control cells and CUL4A^k/d or CUL4B^k/d cells are assessed by student's t-test. E-F) Growth rate of control, CUL4A^k/d and CUL4B^k/d TGL-BT474 xenograft in vivo. 1×10^7 of control, CUL4A^k/d or CUL4B^k/d TGL-BT474 cells were injected subcutaneously in the right flank of each mouse of athymic Nu/J nude mice, and tumor burden was measured by bioluminescent imaging (E). On the 22nd day, tumors were collected, and the weight of exercised tumors was measured after mice were sacrificed (F).
# The effect of CUL4B knockdown on an organism's response to CPT treatment was tested in vivo by examining the sensitivity of BT474-CUL4B^k/d, BT474-CUL4A^k/d and control BT474 xenograft tumors to topotecan treatment. Topotecan, (S)-10-[(dimethylamino)methyl]-4-ethyl-4,9-dihydroxy-1H-pyrano[3′,4′:6,7]indolizino[1,2-b]quinoline-3,14(4H,12H)-dione monohydrochloride, is an FDA-approved Top1-directed chemotherapy for the treatment of ovarian, cervical and small cell lung cancer, under the trade name Hycamtin™. Nude mice bearing BT474 xenografts on dorsal skin were treated with topotecan every four (4) days for a period of 44 days. Prior to topotecan administration, the size of the xenograft tumors were identical (FIG. 5). Topotecan was then administered via intraperitoneal injection, and tumor mass was monitors by bioluminescent imaging in four day intervals. […] To rule out the possibility that the growth rate of xenografts were altered during the CUL4B inactivation process (treatment with shRNA) the tumor mass of the three xenograft groups were measured in the absence of topotecan treatment and the weight of the exercised xenograft tumors were analyzed.
# Six week old Female athymic Nu/J nude mice were purchased from Jackson Labs. Mice were housed in laminar air-flow cabinets under specific pathogen-free conditions. Nude mice were inoculated with 0.36 mg 60-day-release 17-b-estradiol pellets (Innovative Research) 24 to 48 hours before implantation of BT-474 cells. 1×10^7 BT-474 cells in 50 ul DMEM medium and 300 ul diluted BD Matrigel™ Basement Membrane Matrix (BD Bioscience, Matrix: PBS is 2:1) were injected subcutaneously in the right flank of each mouse. Tumors were detected once every four days by an IVIS Imaging System (Caliper Life Sciences). When tumors were available to be detected, mice were initially treated with topotecan. Topotecan was administered intraperitoneally on every fourth day from the initiation of therapy at doses of 5 mg/g.
# The IVIS Imaging System (Caliper life sciences) was used for bioluminescent image acquisition and analysis. […]
# BT474 cells = assay: XTT Cell Proliferation Assay, growth rate of BT474 cells in vitro; assay type: cell-based, Human; conditions: knockdown cells vs control, no drug
# Description: as §1, with “B, C) 1×10^7 of control, CUL4A^k/d, or CUL4B^k/d TGL-BT474 cells were injected subcutaneously in the right flank of each athymic Nu/J nude mice, treated (i.p.) with toptoecan at a dose of 5 mg/g on every 4th day, and tumor burden was measure by bioluminescent imaging.” left out, “D) Growth rate of control, CUL4A^k/d and CUL4B^k/d BT474 cells in vitro.” left out, “The data represent the mean value of fold change of cells. Bars indicate the S.E. of six independent experiments.” left out, “E-F) Growth rate of control, CUL4A^k/d and CUL4B^k/d TGL-BT474 xenograft in vivo.” left out
# Top1 = target: T1, Top1 (Homo sapiens, UniProt P11387); assay: CPT-induced TOP1 down regulation assay (immunoblotting); assay type: cell-based; conditions: BT474 cells, lentiviral shRNA; CPT 50 μM, 1 to 1.5 hr
# T1 construct: CPT-induced TOP1 degradation in breast cancer cell lines; host or cells: human breast cancer cell lines BT474, BT20, MCF-7, MDA-MB-231, T47D, Sk-Br-3 (MCF-10A as control)
# T1 sequence (P11387 1-765): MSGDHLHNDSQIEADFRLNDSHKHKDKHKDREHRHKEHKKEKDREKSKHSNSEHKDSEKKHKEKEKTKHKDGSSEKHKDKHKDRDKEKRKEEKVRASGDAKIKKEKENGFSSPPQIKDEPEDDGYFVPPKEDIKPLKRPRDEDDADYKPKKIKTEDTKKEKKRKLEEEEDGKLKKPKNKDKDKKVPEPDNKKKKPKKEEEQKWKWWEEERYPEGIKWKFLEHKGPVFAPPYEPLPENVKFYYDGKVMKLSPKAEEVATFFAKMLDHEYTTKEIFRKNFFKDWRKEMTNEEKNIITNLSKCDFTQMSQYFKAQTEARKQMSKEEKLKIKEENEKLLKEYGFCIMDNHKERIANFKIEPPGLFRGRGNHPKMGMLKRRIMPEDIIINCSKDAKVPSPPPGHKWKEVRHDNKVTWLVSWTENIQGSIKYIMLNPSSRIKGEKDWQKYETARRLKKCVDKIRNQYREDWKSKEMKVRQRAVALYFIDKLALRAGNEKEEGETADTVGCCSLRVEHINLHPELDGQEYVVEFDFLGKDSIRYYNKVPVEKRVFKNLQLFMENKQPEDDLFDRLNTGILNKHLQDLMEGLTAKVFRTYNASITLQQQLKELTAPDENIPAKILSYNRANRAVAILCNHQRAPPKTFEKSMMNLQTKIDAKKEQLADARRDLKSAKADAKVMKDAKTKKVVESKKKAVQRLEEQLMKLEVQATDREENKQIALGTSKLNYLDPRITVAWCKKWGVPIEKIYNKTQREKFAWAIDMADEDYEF
# Description: FIG. 1. CPT-induced TOP1 degradation in breast cancer cell lines. A) Expression of endogenous CUL4A and 4B in breast cancer cell lines. Total cell lysates were prepared from the indicated breast cancer cell lines and subjected to SDS PAGE and immunoblotting with antibodies against CUL4A, 4B and α-tubulin. The non-cancerous MCF-10A cell line was used as a control for comparison. B) CPT-induced TOP1 degradation in breast cancer cell lines. Cells were treated with 12.5 μM CPT or 1% DMSO for 4 hours, replenished with CPT-free fresh medium and incubated at 37° C. for 30 minutes to reverse the formation of TOP1 cleavable complex. Cells were then lysed and immunoblotted with the TOP1 and α-tubulin antibodies.
# FIG. 2. CUL4B interacted with Top1 and induced Top1 degradation in the presence of CPT. A) Knockdown of CUL4B impaired CPT-induced Top1 degradation. BT474 cells were infected with lentiviral shCUL4B, shCUL4A or control non-targeting shRNA, and selected for stable CUL4B^k/d or CUL4A^k/d cells upon treatment with puromycin. Following treatment with CPT (50 μM) for 1 hour, cells were replenished with CPT-free fresh medium and incubated at 37° C. for 30 minutes. Top1 degradation was assessed by immunoblotting with an anti-Top1 antibody. Levels of α-tubulin were measured as a loading control. B) Association of CUL4B with Top1 following CPT treatment. BT474 cells were treated with proteosome inhibitor MG132 (15 μM) for 3 hours, and were subjected to crosslinking with 0.2 mM Dithiobis[succinimidyl propionate](DSP) for the last 30 min at room temperature. Cell lysates were prepared, and immunoprecipitated with the anti-Top1 or anti-CUL4B antibodies, and then immunoblotted using antibodies against CUL4B or Top1, respectively. IgG immunoprecipitates served as the negative control. C) Knockdown of CUL4B using a second shCUL4B-2 impaired CPT-induced Top1 degradation. BT474 cells were infected with lentiviral shCUL4B-2, shCUL4A-2 or control non-targeting shRNA and selected for stable CUL4B^k/d or CUL4A^k/d cells upon treatment with puromycin. Following treatment with CPT (50 μM) for 1.5 hr, cells were replenished with CPT-free fresh medium and incubated at 37° C. for 30 min. Top1 degradation was assessed by immunoblotting with the anti-Top1 antibody. Levels of α-tubulin were measured as a loading control. D) CUL4B inactivation sensitized BT474 cells to cytotoxic killing by camptothecin. BT474, BT474-CUL4A^k/d or BT474-CUL4B^k/d cells were synchronized with 1 μM nocodazole for 13 hours released in fresh medium, treated with the indicated concentrations of CPT for three days, and subjected to the XTT assay to measure the cytotoxic responses to CPT. […] The bars indicate the S.E. of six independent experiments. Statistical significance in cellular response to CPT between control BT474 cells and CUL4A^k/d or CUL4B^k/d cells were assessed by a two-tailed unpaired student t-test (***: p<0.001). The same results were obtained with a second lentiviral shRNA for CUL4A and CUL4B, as well as in T47D breast cancer cells. E, F) Knockdown of CUL4B increased the sensitivity of T47D cells to camptothecin. […] Statistical significance in cellular response to camptothecin between control cells and CUL4A^k/d or CUL4B^k/d BT474 cells are assessed by student's t-test.
# CPT-induced Top1 degradation was monitored by immunoblotting of the alkaline lysates. […]
molecule,measurement,setting,value
"CC[C@@]1(O)C(=O)OCc2c1cc1n(c2=O)Cc2cc3c(CN(C)C)c(O)ccc3nc2-1.Cl [topotecan, (S)-10-[(dimethylamino)methyl]-4-ethyl-4,9-dihydroxy-1H-pyrano[3′,4′:6,7]indolizino[1,2-b]quinoline-3,14(4H,12H)-dione monohydrochloride]",Xenograft tumor growth under topotecan treatment,"BT474 xenograft tumors; BT474-CUL4A k/d xenografts, 44 days",continue to grow
same,Xenograft tumor growth under topotecan treatment,BT474 xenograft tumors; BT474-CUL4B k/d xenografts vs control and CUL4A k/d groups (p<0.001),largely attenuated
same,Xenograft tumor growth under topotecan treatment,"BT474 xenograft tumors; control BT474 xenografts, 44 days",continue to grow
same,Size of control and shCUL4A xenografts relative to shCUL4B xenografts,BT474 xenograft tumors; final day of topotecan treatment,5 fold
same,Detection of xenografts by bioluminescent imaging,"BT474 xenograft tumors; several shCUL4B xenografts, final day of topotecan treatment",not detectable
shCUL4A: lentiviral shRNA CUL4A sequence purchased from Sigma Aldrich (CCGGGCAGAACTGATCGCAAAGCATCTCGAGATGCTTTGCGATCAGTTCTGCTTTTT),Growth rate of xenografts vs control,"BT474 xenograft tumors; without topotecan administration, tumor burden and excised tumor weight",no significant difference
same,Growth rate of cultured BT474 cells in vitro,BT474 cells,reduced the growth rate slightly
shCUL4B-2: second lentiviral shRNA CUL4B sequence purchased from Sigma Aldrich (CCGGGCAATTCTTCAGAAAGGTTTACTCGAGTAAACCTTTCTGAAGAATTGCTTTTT),Effect of shRNA knockdown on CPT-induced Top1 degradation,Top1,impaired
